Measurements published in patent US12304910B2, “Janus kinase (JAK) family inhibitor, preparation of same, and applications thereof” (JIANGSU VCARE PHARMATECH CO., LTD., priority 2019, dated 2025).
pIC50: −log10 of the molar value.

Tests used:
[1] = biological target: JAK1 (Homo sapiens, UniProt P23458); assay: Kinase activity test (γ33P-ATP isotopic method), JAK1; assay type: biochemical
Experimental: (§1) This experiment adopted a γ^33p-ATP isotopic test method to test the inhibitory effect of a compound on kinases JAK1, JAK2, JAK3 and TYK2, and obtained a half inhibitory concentration IC50 of the compound for inhibiting activity of the kinase.
(§2) 20 mM 4-hydroxyethylpiperazine ethanesulfonic acid buffer (Hepes, pH 7.5), 10 mM magnesium chloride (MgCl2), 1 mM ethylene glycol diethyl ether diamine tetraacetic acid (EGTA), 0.02% dodecyl polyethylene glycol ether (Brij35), 0.02 mg/ml bovine serum albumin (BSA), 0.1 mM sodium vanadate (Na3VO4), 2 mM dithiothreitol (DTT), and 1% dimethylsulfoxide (DMSO).
(§3) A compound is dissolved with 100% DMSO to a specific concentration, and then subjected to gradient dilution by an automatic sampling device to obtain the samples to be tested with different concentrations (DMSO solutions).
(§4) 3.1 diluting the reaction substrate with the basic reaction buffer;
(§5) 3.2 adding the kinase into the substrate solution, and gently mixing well;
(§6) 3.3 adding, by the automatic sampling system, the 100% DMSO diluted compounds with different concentrations into the kinase solution, and incubating for 20 min at room temperature; and
(§7) 3.4 adding ^33p-ATP (10 μM, 10 μCi/μl) at room temperature to initiate the kinase reaction for a duration of 2 h.
(§8) The unreacted ATP and the reaction-generated […] in the reaction were removed by an ion exchange filtering system, and then the amount of radioactivity of ^33p isotope in the substrate was detected.
(§9) According to the amount of radioactivity, the kinase activities in the systems added with the inhibitors of different concentrations were calculated, to obtain the inhibitors' effects of the compounds of different concentrations on the kinase activity; and fitting was performed with graphpad prism to obtain the inhibitory IC50 values of the compounds.

[2] = biological target: JAK2 (Homo sapiens, UniProt O60674); assay: Kinase activity test (γ33P-ATP isotopic method), JAK2; assay type: biochemical; conditions: 33P-ATP 10 μM, 2 h reaction
Experimental: as §1, §2, §3, §4, §5, §6, §7, §8, §9

[3] = biological target: TYK2 (Homo sapiens, UniProt P29597); assay: Kinase activity test (γ33P-ATP isotopic method), TYK2; assay type: biochemical; conditions: 33P-ATP 10 μM, 2 h reaction
Experimental: as §1, §2, §3, §4, §5, §6, §7, §8, §9

[4] = tested on: DSS induced mouse ulcerative colitis model; assay: Efficacy test in DSS induced mouse ulcerative colitis model; assay type: in vivo
Description: Mice of 6-7 weeks old were randomly grouped, 6 mice per group. Purified water was provided ad libitum to the mice in a negative control group, and a 2% solution of dextran sulfate sodium (DSS) was provided ad libitum to the mice in other groups, for 7 consecutive days. During the modeling, medication was given according to the groups, once a day for 7 days (the treatment groups and the mouse numbers can be adjusted according to the specific situation). Within 8-10 days later, the DSS-containing water was replaced with purified water, provided ad libitum to the mice. The normal administration continued for 3 days.
From the first day of administration, the general conditions such as metal state, eating, drinking and activities of the mice were respectively observed every day, the mice were weighed every day, and the animal stools were collected, evaluated for their traits and subjected to the occult blood test. The disease activity index (DAI) of experimental animals within 1-10 days were comprehensively assessed.
Scoring was performed according to the above-mentioned standards. The disease activity index (DAI) of each mouse was obtained by summing the scores of weight loss, stool trait and occult blood condition, to evaluate the disease activity. DAI=(score of weight loss+score of stool trait+score of bloody stool)/3, ranging from 0-4.
The experimental data was processed statistically, and the data are all expressed as mean±SD or mean±SME. The SPSS13.0 software was used for statistical analysis, and the differences among the groups were compared with t test (equal variance) or t′ test (unequal variance).

[5] = tested on: DNBS induced rat Crohn's disease model; assay: Therapeutic activity in DNBS induced rat Crohn's disease model; assay type: in vivo; set-up: rat colon ulcer area: unit not given beside the values; conditions: for colon weight-length ratio / rat colon ulcer area: 7 days, mean±SD; for colon weight-length ratio: colon weight (g)/length (cm) ratio×100, model group G2 14.6±5.1; for rat colon ulcer area: model group G2 1.54±2.00
Experimental: Male wistar rats of 4-5 weeks old were adaptively fed for 5 days, and two days before the experiment, randomly divided into 6 groups:
Blank control group: G1 (Normal), 4 normal rats were selected and only given with 30% ethanol, 10 mL/kg.
0.5 mL of 50 mg/mL DNBS (DNBS dissolved in 30% ethanol) was injected into the colon of rats to induce enteritis in rats, for 40 rats in total. Eight of them were selected as model group G2 (Model), and the remaining 32 rats were administrated.
Administration group: the rats with DNBS induced enteritis were administered with ABT494 and the compound of Example 2 respectively and divided into G3-G6 groups, 8 rats/group. G3: ABT494, 10 mg/kg-QD; G4: Example 2, 0.3 mg/kg-BID; G5: Example 2, 1 mg/kg-BID; and G6: Example 2, 3 mg/kg-BID.
The rats were fasted, but fed with water for 48 hours, and a 5% glucose salt solution (10 mL/kg) was used as an energy supplement for experimental animals during the fasting period, once a day. On the day of experimental modeling, the fasting rats were anesthetized with Choutet (25 mg/kg), and then 0.5 mL of 50 mg/mL DNBS was injected from the anus to left colic flexure of the rat (about 8 cm to the anus) to induce rat enteritis. All rats were kept in a […] for 15 min until they were awaken, to prevent the backflow of DNBS. From the day of the experimental modeling, medication was given for 7 days.
After the DNBS modeling, the weights of the animals were measured and recorded every day, the daily activities of the animals were observed, and the abnormalities were recorded. During the experiment, the stool state of the rats was scored every day. On day 7, the rats were anesthetized with isoflurane (3-5%), blood was taken from the orbit, and the serum was separated and stored at −80° C. All animals were euthanized by cervical vertebra dis location after suffocation from excessive CO2 inhalation. The abdomen was cut, the colorectum was take out and longitudinally dissected, and the stool trait in the colorectum was scored. The colorectum was thoroughly rinsed with ice-cold PBS and then the ulcer surface was observed. The length and weight and ulcer area of the colon were recorded, the weight-length ratio (colon weight (g)/length (cm) ratio×100) was calculated, and the overall picture was taken. All intestinal tissue was longitudinally divided into two parts, where one part was fixed with 4% neutral […] and embedded with paraffin, and the rest colon sample was cryopreserved at −80° C.
Excel and Graphapad software were used for statistical analysis, and the results were expressed as mean±SD.

Chain of JAK1 (P23458 whole entry): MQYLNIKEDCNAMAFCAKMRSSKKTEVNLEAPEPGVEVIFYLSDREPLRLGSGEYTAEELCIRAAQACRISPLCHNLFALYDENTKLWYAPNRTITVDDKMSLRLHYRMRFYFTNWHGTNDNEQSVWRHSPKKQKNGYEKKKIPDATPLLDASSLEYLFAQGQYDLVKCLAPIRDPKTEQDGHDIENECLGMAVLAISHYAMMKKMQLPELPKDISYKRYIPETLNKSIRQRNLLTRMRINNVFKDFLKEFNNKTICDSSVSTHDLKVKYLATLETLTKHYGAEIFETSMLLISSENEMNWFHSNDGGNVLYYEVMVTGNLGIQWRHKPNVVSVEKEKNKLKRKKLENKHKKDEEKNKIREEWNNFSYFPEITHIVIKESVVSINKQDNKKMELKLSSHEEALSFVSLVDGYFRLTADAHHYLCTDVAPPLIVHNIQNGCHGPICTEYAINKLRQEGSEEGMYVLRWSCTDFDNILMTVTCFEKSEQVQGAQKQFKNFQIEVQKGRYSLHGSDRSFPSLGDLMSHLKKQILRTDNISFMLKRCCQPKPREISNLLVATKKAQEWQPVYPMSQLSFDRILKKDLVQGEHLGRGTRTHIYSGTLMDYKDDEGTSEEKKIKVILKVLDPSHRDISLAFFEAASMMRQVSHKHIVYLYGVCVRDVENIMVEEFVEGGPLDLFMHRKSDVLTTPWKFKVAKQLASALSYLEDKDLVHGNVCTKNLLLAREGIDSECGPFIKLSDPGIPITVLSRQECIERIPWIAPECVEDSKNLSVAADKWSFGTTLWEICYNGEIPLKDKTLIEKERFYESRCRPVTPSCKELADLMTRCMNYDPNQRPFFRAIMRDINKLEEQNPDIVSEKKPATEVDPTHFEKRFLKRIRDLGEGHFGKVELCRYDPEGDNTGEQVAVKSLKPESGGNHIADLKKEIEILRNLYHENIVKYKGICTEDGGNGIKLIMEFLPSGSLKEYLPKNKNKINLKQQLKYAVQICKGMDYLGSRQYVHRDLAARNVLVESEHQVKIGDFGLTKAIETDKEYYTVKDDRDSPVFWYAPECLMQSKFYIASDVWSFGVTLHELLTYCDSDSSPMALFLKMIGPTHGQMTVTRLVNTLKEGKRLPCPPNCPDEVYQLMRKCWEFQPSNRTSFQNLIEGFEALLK
Chain of JAK2 (O60674 whole entry): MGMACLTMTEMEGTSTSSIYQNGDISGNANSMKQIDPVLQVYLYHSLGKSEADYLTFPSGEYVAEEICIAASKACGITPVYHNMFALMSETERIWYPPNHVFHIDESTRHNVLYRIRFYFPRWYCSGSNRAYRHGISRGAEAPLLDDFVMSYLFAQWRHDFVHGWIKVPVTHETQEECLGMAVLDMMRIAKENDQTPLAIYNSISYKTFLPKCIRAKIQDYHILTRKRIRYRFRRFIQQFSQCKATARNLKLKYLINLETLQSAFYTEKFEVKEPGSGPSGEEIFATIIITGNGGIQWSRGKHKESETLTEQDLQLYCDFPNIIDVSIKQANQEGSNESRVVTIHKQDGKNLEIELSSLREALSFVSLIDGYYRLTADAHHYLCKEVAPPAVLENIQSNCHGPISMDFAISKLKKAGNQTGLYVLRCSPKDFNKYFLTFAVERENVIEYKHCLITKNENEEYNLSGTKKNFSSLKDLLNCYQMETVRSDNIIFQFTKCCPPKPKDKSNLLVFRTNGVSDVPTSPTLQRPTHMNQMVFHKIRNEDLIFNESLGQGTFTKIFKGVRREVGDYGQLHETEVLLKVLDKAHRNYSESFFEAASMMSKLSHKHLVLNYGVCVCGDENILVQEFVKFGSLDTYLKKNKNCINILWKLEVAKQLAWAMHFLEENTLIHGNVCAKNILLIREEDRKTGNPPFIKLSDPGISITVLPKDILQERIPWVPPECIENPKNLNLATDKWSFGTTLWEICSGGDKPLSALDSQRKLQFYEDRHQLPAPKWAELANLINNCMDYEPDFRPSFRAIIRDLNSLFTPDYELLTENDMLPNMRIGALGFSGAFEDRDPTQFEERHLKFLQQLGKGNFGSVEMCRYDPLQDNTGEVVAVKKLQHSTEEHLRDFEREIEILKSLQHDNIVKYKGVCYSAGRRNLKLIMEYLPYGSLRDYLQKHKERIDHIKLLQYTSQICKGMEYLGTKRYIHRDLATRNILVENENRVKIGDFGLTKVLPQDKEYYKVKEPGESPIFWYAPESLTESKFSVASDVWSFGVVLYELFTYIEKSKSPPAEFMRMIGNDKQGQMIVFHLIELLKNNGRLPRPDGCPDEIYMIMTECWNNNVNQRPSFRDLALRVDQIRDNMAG
Chain of TYK2 (P29597 whole entry): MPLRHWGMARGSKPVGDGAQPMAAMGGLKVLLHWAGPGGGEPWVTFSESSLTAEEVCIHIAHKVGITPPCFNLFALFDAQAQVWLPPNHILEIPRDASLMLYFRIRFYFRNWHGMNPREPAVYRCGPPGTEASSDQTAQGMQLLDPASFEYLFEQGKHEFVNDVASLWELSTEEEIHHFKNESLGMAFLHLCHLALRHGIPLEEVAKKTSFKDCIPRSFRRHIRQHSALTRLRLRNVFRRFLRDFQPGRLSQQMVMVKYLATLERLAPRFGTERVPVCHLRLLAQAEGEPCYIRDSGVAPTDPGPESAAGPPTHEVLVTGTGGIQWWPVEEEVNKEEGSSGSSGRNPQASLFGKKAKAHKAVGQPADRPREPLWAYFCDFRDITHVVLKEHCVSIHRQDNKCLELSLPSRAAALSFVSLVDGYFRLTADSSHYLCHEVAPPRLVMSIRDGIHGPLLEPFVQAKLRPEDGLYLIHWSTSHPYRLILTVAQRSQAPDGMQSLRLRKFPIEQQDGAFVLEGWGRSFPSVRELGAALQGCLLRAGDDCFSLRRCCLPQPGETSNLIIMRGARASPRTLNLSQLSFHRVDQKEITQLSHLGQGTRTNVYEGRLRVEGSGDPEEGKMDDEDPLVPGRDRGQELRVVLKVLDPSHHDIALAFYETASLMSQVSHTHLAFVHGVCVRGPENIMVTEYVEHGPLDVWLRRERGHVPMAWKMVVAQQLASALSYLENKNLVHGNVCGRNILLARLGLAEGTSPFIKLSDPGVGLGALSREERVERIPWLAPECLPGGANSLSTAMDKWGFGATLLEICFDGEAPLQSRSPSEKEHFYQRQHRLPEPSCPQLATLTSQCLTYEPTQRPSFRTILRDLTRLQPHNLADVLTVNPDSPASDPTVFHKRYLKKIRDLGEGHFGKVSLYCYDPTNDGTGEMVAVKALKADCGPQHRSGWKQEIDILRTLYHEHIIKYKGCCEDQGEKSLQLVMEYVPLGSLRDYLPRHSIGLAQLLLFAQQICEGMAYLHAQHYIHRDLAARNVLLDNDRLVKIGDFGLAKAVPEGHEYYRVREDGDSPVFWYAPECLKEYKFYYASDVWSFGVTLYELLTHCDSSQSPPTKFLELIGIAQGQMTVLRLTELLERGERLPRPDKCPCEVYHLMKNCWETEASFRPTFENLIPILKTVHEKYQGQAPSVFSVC

pIC50 ([1]; 33P-ATP 10 μM, 2 h reaction): 9.82
pIC50 [2]: 8.43
pIC50 [3]: 8.83
SMILES: NC(=O)c1cnc2[nH]ccc2c1NN1CCC[C@H](C(=O)NCC(F)F)C1 [Example 2, (S)-4-(3-(2,2-difluoroethylcarbamoyl)piperidine-1-amino)-1H-7-azaindole-5-carboxamide]
activity in inhibiting the JAK1 kinase compared with Tofacitinib (in words) ([1]; conclusion from Table 1): higher activity in inhibiting the JAK1 kinase than the positive drug control Tofacitinib
DAI score on day 8 ([4]; 5 mg/kg group, once a day, mouse DSS model, DAI range 0-4): 1.5
effect on DSS induced enteritis in mice (in words) ([4]; relatively low dose): significant effect in inhibiting the DSS induced enteritis in mice
colon weight-length ratio ([5]; G4, 0.3 mg/kg-BID): 10.5±3.9
rat colon ulcer area ([5]; G4, 0.3 mg/kg-BID): 0.83±1.00
colon weight-length ratio ([5]; G5, 1 mg/kg-BID): 10.0±1.9
rat colon ulcer area ([5]; G5, 1 mg/kg-BID): 0.65±1.05
colon weight-length ratio ([5]; G6, 3 mg/kg-BID): 10.5±2.0
rat colon ulcer area ([5]; G6, 3 mg/kg-BID): 0.76±1.21
effect on DNBS induced enteritis of the rats (in words) ([5]; relatively low dose): significant effect in inhibiting the DNBS induced enteritis of the rats
